Assay results from patent publication US6096725A, “Methods of using αGal oligosaccharides as immune system targeting agents” (Neose Technologies, Inc., priority 1997, dated 2000).
Where two headings read alike, the source gives them in different places.

How the values were obtained:
[1] = Pharmacokinetics after 15 minute intravenous bolus in baboons; type: in vivo, baboon; details: for clearance / half-life / Vd: baboon, plasma, iv, 500 umol/kg, 0.5 mMol/Kg 15 minute i.v. bolus; for Vd: read-out: Volume of Distribution
Method: The pharmacokinetics of the αGal trisaccharide compositions and the αGal pentasaccharide compositions were determined by delivering to one baboon by 15 minute intravenous bolus, 0.5 mMol/Kg of one oligosaccharide and 48 hours later, delivering 0.5 mmol/Kg of the second oligosaccharide, and for a second baboon, delivering the oligosaccharides according to the same procedure, but in the reverse order.
Three Baboons were outfitted with indwelling venous and arterial catheters to the femoral vessels, and held in place with the aid of a jacket. Oligosaccharides were administered through the catheter in a 15 minute continuous infusion.
(§1) The clearance is used to calculate the infusion rate needed to maintain a desired drug concentration. The half-life describes how quickly concentrations diminish with time. Mathematical formulations known in the art were applied to estimate the pharmacokinetic parameters of the αGal trisaccharide and αGal pentasaccharide. […] Compared to other drugs, the volumes of distribution of these oligosaccharides are low, less than the extravascular water volume (<400 mL/kg). The clearance is typical of compounds eliminated by GFR (glomerular filtration rate).

[2] = system: mouse endothelial cell line, MAE; type: cell-based; details: 240 min
[3] = set-up: species or system baboon; details: in vivo
Method: The two xenotransplant baboons were outfitted with an indwelling catheter to the femoral vein to infuse compound and a catheter to the femoral artery for blood sampling. Following the transplant procedure, but just prior to providing circulatory access to the xenograft, the oligosaccharide was administered by i.v. pump through the catheter in a 15 min loading dose, followed by continuous 4 hour infusion to achieve 2.5 mM blood concentration (as determined by calculations presented in Table 2). […] Blood specimens collected for plasma were immediately centrifuged and the plasma withdrawn and stored frozen at -20° C. Blood specimens collected for serum were clotted at 4° C. overnight and the withdrawn serum frozen at -20° C. The αGal pentasaccharide was prepared according to the enzymatic methods set forth in example 6.2 and stored as a dry, white, solid powder. The oligosaccharide was dissolved in 250 mL sterile infusion grade saline to a concentration of 0.154 g/mL, or 177 mM. Induction anesthesia was with ketamine hydrochloride 5 mg/kg/body weight in and 0.5 mg/kg of xylazine iv. Intravenous fluid of approximately 20 ml/kg body weight was given during the course of the operative procedure through either a peripheral or central vein. Atropine 0.5 mg/kg was given iv. […] Arterial pressure was monitored in the recipient baboon by intermittent automatic cuff recordings.

[4] = Human dose and half-life estimates extrapolated from baboon pharmacokinetics; details: human patient of 70 Kg
Method: ^1 To achieve a steady state serum concentration for monovalent αGal pentasaccharide of 1 mM (i.e., 0.9 mg/mL) in a human patient of 70 Kg, it is estimated that a loading dose of 412 mg/Kg be administered in the form of a bolus or 15 minute infusion, followed by a continuous infusion of 30 g/h over a 14 day period (see Table 2 for further αGal trisaccharide and αGal pentasaccharide 2 infusion regimens).
as §1

[5] = to attain 0.5 mM steady state serum concentration
[6] = to attain 1.0 mM steady state serum concentration
[7] = to attain 2.0 mM steady state serum concentration

In the case of `CC(=O)N[C@H]1[C@H](O[C@H]2[C@@H](O)[C@@H](CO)O[C@@H](O[C@H]3[C@H](O)[C@@H](O)C(O)O[C@@H]3CO)[C@@H]2O)O[C@H](CO)[C@@H](O[C@@H]2O[C@H](CO)[C@H](O)[C@H](O[C@H]3O[C@H](CO)[C@H](O)[C@H](O)[C@H]3O)[C@H]2O)[C@@H]1O` (stereo partly shown) [αGal pentasaccharide, Galα1-3Galβ1-4GlcNAcβ1-3Galβ1-4Glc], the clearance ([1]; baboon 1003) is reported as 2.93 mL/min/kg, the half-life ([1]; baboon 1003) is reported as 47.3 min and the Vd ([1]; baboon 1003) is reported as 0.199 L/kg. It also gave a clearance ([1]; baboon 1015) of 3.97 mL/min/kg, a half-life ([1]; baboon 1015) of 40.2 min and a Vd ([1]; baboon 1015) of 0.23 L/kg. For the same compound, the “Calculated continuous infusion, total amount” value (“Calculated continuous infusion” for short) [1, 5] was 1.44 Kg/14 days, the Calculated loading dose [1, 5] was 4.12 g/20 Kg baboon and the “Calculated loading dose (bolus or 15 min infusion)” value [1, 5] was 206 mg/kg. The “Calculated continuous infusion” value [1, 6] was 2.88 Kg/14 days, the Calculated loading dose [1, 6] was 8.24 g/20 Kg baboon and the “Calculated loading dose (bolus or 15 min infusion)” value [1, 6] was 412 mg/kg. For the same compound, the “Calculated continuous infusion” value [1, 7] was 5.74 Kg/14 days, the Calculated loading dose [1, 7] was 16.48 g/20 Kg baboon and the “Calculated loading dose (bolus or 15 min infusion)” value [1, 7] was 824 mg/kg. For the same compound, the “Reduction of cytotoxicity of baboon sera against MAE cells” value [2] was 100%, the “Blood concentration relative to prediction from earlier pharmacokinetic infusions” value [3] was “approximately twice what was predicted” and the Estimated continuous infusion ([4]; 1 mM steady state, over a 14 day period) was 30 g/h. The “Estimated loading dose (bolus or 15 minute infusion)” value ([4]; steady state serum concentration 1 mM (0.9 mg/mL)) was 412 mg/kg.
